According to PubChem BioAssay (NCI):
Several values for one entry are separate records, joined by “and”; a condition that tells them apart may be missing. Equal values may be shown once.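 In this assay, cells in 96-well plates receive the compound at five concentrations for 48 hours. Endpoints are linearly interpolated between the surrounding concentrations. Abbreviation: GI50, concentration required for 50% inhibition of growth. The concentration for full growth arrest is given as TGI.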

What was measured:
Assay in all cases: inhibition of tumour cell growth, NCI panel, 48 h
[1] = system: CAKI-1 renal
[2] = system: HL-60(TB) leukemia
[3] = system: MDA-N
[4] = system: OVCAR-8 ovarian
[5] = system: SK-MEL-2 melanoma
[6] = system: SK-OV-3 ovarian
[7] = system: SN12C renal
[8] = system: SNB-19 CNS
[9] = system: SR leukemia
[10] = system: SNB-78 CNS

## COC(=O)C=Cc1ccc2nncnc2c1 (mixture of isomers)
[1]
  TGI: > 100 µM
[2]
  TGI: > 100 µM
[3]
  TGI: 46.1 µM
[4]
  TGI: > 100 µM
[5]
  TGI: > 100 µM
[6]
  TGI: > 100 µM
[7]
  TGI: > 100 µM
[8]
  TGI: > 100 µM
[9]
  TGI: > 100 µM

## Cc1ccc(S(=O)(=O)N/N=C(/c2nc3ccc([N+](=O)[O-])cc3[nH]c2=O)C(O)c2ccc(C(O)/C(=N\NS(=O)(=O)c3ccc(C)cc3)c3nc4ccc([N+](=O)[O-])cc4[nH]c3=O)cc2)cc1 (centres undefined)
[2]
  TGI: 98.3 µM
[4]
  TGI: > 100 µM
[5]
  TGI: > 100 µM
[6]
  TGI: > 100 µM
[8]
  TGI: > 100 µM
[10]
  TGI: > 100 µM

## CCn1c(-c2nonc2N)nc2cncc(C(=O)N3CC[C@H](N)C3)c21
[1]
  GI50: 2.35 µM
  TGI: > 25 µM
[2]
  GI50: > 25 µM
  TGI: > 25 µM
[4]
  GI50: > 25 µM
  TGI: > 25 µM
[5]
  GI50: > 25 µM
  TGI: > 25 µM
[6]
  GI50: > 25 µM
  TGI: > 25 µM
[7]
  GI50: > 25 µM
  TGI: > 25 µM
[8]
  GI50: > 25 µM
  TGI: > 25 µM
[9]
  GI50: 2.01 µM
  TGI: > 25 µM

## O=C(Nc1nc2ccccc2s1)Nc1ccc([N+](=O)[O-])cc1Cl
[1]
  GI50: 6.25 µM
  TGI: 16.2 µM
[2]
  GI50: 15.2 µM
  TGI: > 54.7 µM
[4]
  GI50: 2.13 µM
  TGI: 4.99 µM
[5]
  GI50: 12.7 µM
  TGI: 26.9 µM
[6]
  GI50: 8.52 µM
  TGI: 22.2 µM
[7]
  GI50: 4.36 µM
  TGI: 9.53 µM
[8]
  GI50: 8.2 µM
  TGI: 26.7 µM
[9]
  GI50: 3.31 µM
  TGI: > 100 µM

## COc1cc2c(=O)[nH]c3cc([N+](=O)[O-])ccc3c2cc1[N+](=O)[O-]
[1]
  GI50: 6.18 µM
  TGI: > 100 µM
[2]
  GI50: > 100 µM
  TGI: > 100 µM
[4]
  GI50: 3.3 µM
  TGI: 88.1 µM
[5]
  GI50: 22.9 µM
  TGI: > 100 µM
[6]
  GI50: 8.7 µM
  TGI: 38.2 µM
[7]
  GI50: 9.97 µM
  TGI: > 100 µM
[8]
  GI50: 24.1 µM
  TGI: > 100 µM
[9]
  GI50: 2.95 µM
  TGI: > 100 µM

## CCc1nc(N)nc(N)c1-c1ccc(N2CCNCC2)cc1
[1]
  TGI: > 100 µM
[2]
  TGI: > 71 µM
[3]
  TGI: > 100 µM
[4]
  TGI: > 100 µM
[5]
  TGI: > 100 µM
[6]
  TGI: > 100 µM
[7]
  TGI: > 100 µM
[8]
  TGI: > 93.3 µM
[9]
  TGI: > 66.9 µM

## CSc1ccc2c(c1)C(N1CCN(C)CC1)Cc1ccccc1S2 (centres undefined)
[1]
  GI50: 1.62 µM
  TGI: 13.3 µM and 3.33 µM
[2]
  GI50: 1.94 µM
  TGI: 10.7 µM and 3.81 µM
[3]
  TGI: 12.1 µM
[4]
  GI50: 2.07 µM
  TGI: 22.8 µM and 5.35 µM
[5]
  GI50: 1.95 µM
  TGI: 7.82 µM and 3.8 µM
[6]
  GI50: 2.01 µM
  TGI: 27.3 µM and 4.25 µM
[7]
  GI50: 2.81 µM
  TGI: 18.9 µM and 10.8 µM
[8]
  GI50: 2.36 µM
  TGI: 28.5 µM and 6.13 µM
[9]
  GI50: 1.66 µM
  TGI: 5.21 µM and 3.83 µM

## Cn1ncc(Cl)c1-c1cc(C(=O)N[C@H](CN)Cc2ccc(F)c(F)c2)oc1Cl
[1]
  GI50: 1.9 µM and 0.87 µM
  TGI: 14.2 µM and > 5.2 µM
[2]
  GI50: 2.9 µM and 2.05 µM
  TGI: 9.62 µM and 6.76 µM
[4]
  GI50: 9.13 µM and 4.99 µM
  TGI: 23.7 µM and > 10 µM
[5]
  GI50: 2.44 µM and 1.77 µM
  TGI: 6.82 µM and 4.72 µM
[6]
  GI50: 0.232 µM and 0.259 µM
  TGI: 3.75 µM and 5.04 µM
[7]
  GI50: 3.48 µM and 1.69 µM
  TGI: 17.4 µM and > 10 µM
[8]
  GI50: 0.486 µM and 0.252 µM
  TGI: 12.9 µM and > 10 µM
[9]
  TGI: 2.74 µM and 4.36 µM
